Structures can show the parent of a compound that is named as a salt.

Data on 19 molecules can be found in US20240216357A1 (SICHUAN HUIYU PHARMACEUTICAL CO., LTD., priority 2021, published 2024).

For one assay, the target named is LSD1 (Homo sapiens (Human), UniProt O60341). Description: LSD1 enzyme activity detection (HTRF). It counts as biochemical. Particulars: HTRF, H3K4me1 substrate; read-out: Inhibition of enzymatic activity of LSD1 IC50.
In another assay the test system is NCI-H1417 cells. Description: In vitro cell proliferation detection (CellTiter-Glo, 7 days). It counts as cell-based. The settings on record: Homo sapiens, 168 h; NCI-H1417 cells, 7 days, CellTiter-Glo; read-out: NCI-H1417 proliferation inhibition IC50.

Consider `CC(C)(O)Cn1ncc2cc(F)c(-c3c(-c4ccc(C#N)c(F)c4)nc(N4CCC(N)CC4)n4ccnc34)cc21` [Example 127, 4-(5-(4-aminopiperidin-1-yl)-8-(5-fluoro-1-(2-hydroxy-2-methylpropyl)-1H-indazo-6-yl)imidazolo[1,2-c]pyrimidin-7-yl)-2-fluorobenzonitrile hydrochloride], for which the IC50 was determined as 34.4 nM at LSD1 and 135 nM in the assay on NCI-H1417 cells.
The matching figures for `N#Cc1ccc(-c2nc(N3CCC(N)CC3)n3ccnc3c2-c2ccc3oc(=O)[nH]c3c2)cc1F` [Example 129, 4-(5-(4-aminopiperidin-1-yl)-8-(2-oxo-2,3-dihydrobenzo[d]oxazol-5-yl)imidazolo[1,2-c]pyrimidin-7-yl)-2-fluorobenzonitrile]: 0.61 ± 0.13 nM and 112 nM.
On the same counts, the results for `N#Cc1ccc(-c2nc(N3CCC(N)CC3)n3ccnc3c2-c2ccc(OC(F)(F)F)c(F)c2)cc1F` [Example 130, 4-(5-(4-aminopiperidin-1-yl)-8-(3-fluoro-4-(trifluoromethoxy)phenyl)imidazolo [1,2-c]pyrimidin-7-yl)-2-fluorobenzonitrile] are 10.7 nM and 17.6 nM.
The matching figures for `N#Cc1ccc(-c2nc(N3CCC(N)CC3)n3ccnc3c2-c2ccn3ccnc3c2)cc1F` [Example 131, 4-(5-(4-aminopiperidin-1-yl)-8-(imidazolo [1,2-a]pyridin-7-yl)imidazolo[1,2-c]pyrimidin-7-yl)-2-fluorobenzonitrile]: 4.46 ± 0.09 nM and 80.7 nM.
For `CNC1CCN(c2nc(-c3ccc(C#N)c(F)c3)c(-c3ccc(OC)c(O)c3)c3nccn23)CC1` [Example 138, 2-fluoro-4-(8-(3-hydroxy-4-methoxyphenyl)-5-(4-(methylamino)piperidin-1-yl)imidazolo[1,2-c]pyrimidin-7-yl)benzonitrile hydrochloride], the IC50 on LSD1 amounted to 0.1 ± 0.05 nM; in the assay with NCI-H1417 cells, 0.305 nM.
The matching figures for `COc1ccc(-c2c(-c3ccc(C#N)c(F)c3)nc(N3CCC[C@@H](N)C3)n3ccnc23)cc1O` [Example 139, (R)-4-(5-(3-aminopiperidin-1-yl)-8-(3-hydroxy-4-methoxyphenyl)imidazolo[1,2-c]pyrimidin-7-yl)-2-fluorobenzonitrile hydrochloride]: 0.69 ± 0.18 nM and 2.83 nM.
On the same counts, the results for `COc1ccc(-c2c(-c3ccc(C#N)c(F)c3)nc(N3CCC(N(C)C)CC3)n3ccnc23)cc1O` [Example 140, 4-(5-(4 (dimethylamino)piperidin-1-yl)-8-(3-hydroxy-4-methoxyphenyl)imidazolo[1,2-c]pyrimidin-7-yl)-2-fluorobenzonitrile] are 0.4 ± 0.1 nM and 0.2 ± 0.15 nM.
On the same counts, the results for `N#Cc1ccc(-c2nc(N3CCC(N)CC3)n3ccnc3c2-c2ccc(Cl)c(O)c2)cc1F` [Example 142, 4-(5-(4-aminopiperidin-1-yl)-8-(4-chloro-3-hydroxyphenyl)imidazolo[1,2-c]pyrimidin-7-yl)-2-fluorobenzonitrile formate] are 0.198 nM and 0.214 nM.
Regarding `COc1ccc(-c2c(-c3ccc(C#N)c(F)c3)nc(N3CCC(C)(N)CC3)n3ccnc23)cc1O` [Example 143, 4-(5-(4-amino-4-methylpiperidin-1-yl)-8-(3-hydroxy-4-methoxyphenyl)imidazolo[1,2-c]pyrimidin-7-yl)-2-fluorobenzonitrile], the IC50 at LSD1 is 5.5 ± 2.9 nM; with NCI-H1417 cells, 4.82 nM.
On the same counts, the results for `COc1ccc(-c2c(-c3ccc(C#N)c(F)c3)nc(N(C)CCCN)n3ccnc23)cc1O` [Example 144, 4-(5-((3-aminopropyl) (methyl)amino)-8-(3-hydroxy-4-methoxyphenyl)imidazolo[1,2-c]pyrimidin-7-yl)-2-fluorobenzonitrile] are 1.6 ± 0.2 nM and 18.2 nM.
The matching figures for `Cc1ccc(-c2c(-c3ccc(C#N)c(F)c3)nc(N3CCC(C)(N)CC3)n3ccnc23)cc1O` [Example 145, 4-(5-(4-amino-4-methylpiperidin-1-yl)-8-(3-hydroxy-4-methylphenyl)imidazolo[1,2-c]pyrimidin-7-yl)-2-fluorobenzonitrile]: 1 ± 0.2 nM and 2.42 nM.
On the same counts, the results for `Cc1ccc(-c2c(-c3ccc(C#N)c(F)c3)nc(N(C)CCCN)n3ccnc23)cc1O` [Example 146, 4-(5-((3-aminopropyl) (methyl)amino)-8-(3-hydroxy-4-methylphenyl)imidazolo[1,2-c]pyrimidin-7-yl)-2-fluorobenzonitrile] are 0.5 ± 0.2 nM and 8.9 nM.
Take `CC1(N)CCN(c2nc(-c3ccc(C#N)c(F)c3)c(-c3ccc(F)c(O)c3)c3nccn23)CC1` [Example 147, 4-(5-(4-amino-4-methylpiperidin-1-yl)-8-(4-fluoro-3-hydroxyphenyl)imidazolo[1,2-c]pyrimidin-7-yl)-2-fluorobenzonitrile]: the IC50 on LSD1 was 11.5 ± 4.4 nM; with NCI-H1417 cells it was 8 nM.
Regarding `CN(CCCN)c1nc(-c2ccc(C#N)c(F)c2)c(-c2ccc(F)c(O)c2)c2nccn12` [Example 148, 4-(5-((3-aminopropyl) (methyl)amino)-8-(4-fluoro-3-hydroxyphenyl)imidazolo [1,2-c]pyrimidin-7-yl)-2-fluorobenzonitrile], the IC50 stood at 6.9 ± 1.3 nM at LSD1 and 78 nM with NCI-H1417 cells.
The matching figures for `Cc1noc2cc(-c3c(-c4ccc(C#N)c(F)c4)nc(N4CCC(C)(N)CC4)n4ccnc34)c(F)cc12` [Example 149, 4-(5-(4-amino-4-methylpiperidin-1-yl)-8-(5-fluoro-3-methylbenzo [d]isoxazol-6-yl)imidazolo[1,2-c]pyrimidin-7-yl)-2-fluorobenzonitrile]: 33.2 nM and 12.8 nM.
On the same counts, the results for `Cc1noc2cc(-c3c(-c4ccc(C#N)c(F)c4)nc(N(C)CCCN)n4ccnc34)c(F)cc12` [Example 150] are 20.3 nM and 31.2 nM.
The matching figures for `CC1(N)CCN(c2nc(-c3ccc(C#N)c(F)c3)c(-c3ccc(OC(F)(F)F)c(O)c3)c3nccn23)CC1` [Example 152, 4-(5-(4-amino-4-methylpiperidin-1-yl)-8-(3-hydroxy-4-(trifluoromethoxy)phenyl)imidazolo [1,2-c]pyrimidin-7-yl)-2-fluorobenzonitrile]: 23.5 nM and 12.4 nM.
For the molecule `CN(CCCN)c1nc(-c2ccc(C#N)c(F)c2)c(-c2ccc(OC(F)(F)F)c(O)c2)c2nccn12` [Example 153, 4-(5-((3-aminopropyl) (methyl)amino)-8-(3-hydroxy-4-(trifluoromethoxy)phenyl)imidazolo [1,2-c]pyrimidin-7-yl)-2-fluorobenzonitrile], the IC50 at LSD1 was 5.2 ± 0.5 nM; in the assay on NCI-H1417 cells, 31.6 nM.
As for `N#Cc1ccc(-c2nc(N3CCC(N)CC3)n3ccnc3c2-c2ccc(C(F)(F)F)c(O)c2)cc1F` [Example 154, 4-(5-(4-aminopiperidin-1-yl)-8-(3-hydroxy-4-(trifluoromethyl)phenyl)imidazolo [1,2-c]pyrimidin-7-yl)-2-fluorobenzonitrile carboxylate], the results for the IC50 at LSD1 and with NCI-H1417 cells were 0.5 ± 0.1 nM and 0.959 nM, respectively.
